Converted amounts (≈) assume the structure as drawn.
How the values were obtained:
[1] = tested on: CD1 mice administered 1% ethylene glycol; experiment: Mouse ethylene glycol model of hyperoxaluria, urinary oxalate; type: in vivo; conditions: CD-1 mice, twice-daily oral gavage 50 mg/kg
Procedure: Mouse Models of Hyperoxaluria for Determining In Vivo Efficacy of hGOX Inhibitors
Male CD1 mice, 6-8 weeks of age (Charles River Labs, Wilmington, Mass.) were administered 1% ethylene glycol ad libitum their drinking water for 14 days. The mice were housed in individual cages, fed ad libitum and 24-h urine collections were initiated on days 1, 5, 9 and 14 using a 15-rack metabolic cage system equipped with a CCS2000 chiller system (Hatteras Instruments, Cary, N.C.) to maintain the samples at 4° C. during collection. Hydrochloric acid (100 μL of 6N) added to the collection vials to acidify the samples and prevent degradation of oxalate before evaluation.
Urine samples were maintained at 4° C. and urinary oxalate concentrations were determined within 24 hours of sample collection using a Trinity Biotech oxalate assay kit (Catalog #591-D). The assay was an enzymatic method based on the oxidation of oxalate by oxalate oxidase followed by measurement of hydrogen peroxide (H2O2) produced during the peroxidase-catalyzed reaction. Briefly, a 1-mL aliquot of each sample was diluted with an equal volume of assay diluent to bring the pH to between 5.0 and 7.0, then placed into purifier tubes (provided in the kit) and mixed for 5 min. The tubes were centrifuged for 5 min at 2000 rpm (1500×g) and the supernatants collected for the oxalate assay. The procedure was specific for oxalate with no special equipment and was easily adaptable for clinical automated analyzers. Each assay included a standard curve prepared with a standardized oxalate control sample (included in the kit) and internal assay control samples for both a normal (0.2-0.3 mmol/L) and elevated (0.86-1.21 mmol/L) level of oxalate.
To evaluate in vivo efficacy, mice were dosed by once-daily oral gavage of compound I-002 in an appropriate vehicle (e.g., phosphate-buffered saline, pH 7.4) at a dosage of 100 mg/kg. […]
The effect of example I-001 in the ethylene glycol model using CD-1 mice was evaluated by twice-daily, oral gavage dosing at 50 mg/kg for 6 days (days 5-11). […]

[2] = Solubility in phosphate buffered saline (PBS), pH 7.4; type: physicochemical; conditions: phosphate buffer (PBS), aqueous buffer, kinetic from dmso stock; phosphate buffered saline pH 7.4, 1% DMSO, 1 hour shaking at room temperature
Outline: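 DMSO stock (10 mM) diluted into 100 mM phosphate buffer pH 7.4, or into deionized distilled water for the aqueous assay, at 1% final DMSO and shaken 1 h at room temperature. After centrifugation, supernatants quantified by LC-MS/MS against a calibration curve with internal standard.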

[3] = Stability in human plasma; type: in vitro ADME; conditions: read-out: Plasma Stability T1/2
Outline: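 Pooled human plasma (pH 7.4-8) at 37° C, test compound spiked from a 0.02 mM solution in phosphate buffer with 0.5% BSA. Samples taken at 0, 5, 15, 30, 45 and 60 min, quenched with acetonitrile containing internal standard, and remaining compound measured by LC/MS.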

With O=C(O)c1nn[nH]c1Sc1ccc(Cl)cc1 [Example I-001, 5-((4-chlorophenyl)thio)-1H-1,2,3-triazole-4-carboxylic acid] as the molecule, how does the “decrease of total urinary oxalate values (μmole/24 hr/mL)” value ([1]; 24-hour urine collection after 3 days of drug treatment) read?
Its value is 24%.

And the “decrease of total urinary oxalate values (μmole/24 hr/mL)” value ([1]; 24-hour urine collection after 6 days of drug treatment)?
The value was 32%.

What about the solubility at 1 h [2] of the same molecule?
Its solubility at 1 h is 94.5 µM (≈ 24.1 µg/mL).

What about the half-life at 2 μM [3] of the same molecule?
Its half-life at 2 μM is 42.3 min.
